Experimental data from US12050218B2, “Mitochondrial protease OMA1 as a marker for breast cancer” (NUtech Ventures, priority 2017, dated 2024).

Legend:
[1] = tested on: oma1−/− mouse embryonic fibroblasts; assay: Cell viability / growth rate of MEF cells under glutamate pathway inhibition; type: cell-based; conditions: 10 μM BPTES, low glucose or 10 mM galactose medium; oma1−/− vs wild type MEFs (FIG. 1B)
Method: FIG. 1A depicts extracellular acidification rates (ECAR) in wild type and oma1^−/− mouse embryonic fibroblasts under basal, FCCP-stimulated, and glycolysis-ablating (2-DG) conditions. Cells were cultured in the media containing 10 mM glucose. Data are shown as mean values of 3 independent experiments±S.E.M.; **p<0.01, by unpaired t-test. FIG. 1B depicts growth rate of wild type (WT) and oma1^−/− MEF cells under conditions of glutamate pathway inhibition by BPTES. Cells were cultured in the 10 mM galactose-containing medium with (left panel) or without (right panel) 10 μM BPTES for the indicated periods of time and the number of viable cells at each time point has been assessed. […] FIG. 1D depicts the prevalence of cells with protrusions was analyzed in WT and oma1^−/− MEF cells two days after re-seeding on 6-well plates after one week of growth at 100% confluence. […] Of the cells in the field of view, the number of cells with long lamellopodia and cells with normal lamellopodia were counted. […]
(§1) The wild type and oma1^−/− mouse embryonic fibroblasts (24, obtained from Dr. Carlos Lopez-Otin, University of Oviedo) were seeded into 12-well plates at the density of 4×10^4 cells per well. […] Every 24 hours cells, from one well per condition were trypsinized with 0.05% Trypsin (Life Technologies), washed with Ca-, Mg-PBS, resuspended and counted in Countess Automated Cell Counter (Life Technologies). […]

[2] = tested on: OMA1-depleted 21MT-1 cells; assay: Growth rate of control and OMA1-depleted 21MT-1 cells under glutamate pathway inhibition; type: cell-based, human; conditions: 10 μM BPTES, 10 mM galactose medium; OMA1 KD vs control 21MT-1 cells (FIG. 3C)
Method: FIG. 3A depicts a representative oxygen consumption rate (OCR) graph in control and OMA1-depleted 21MT-1 cells under basal, oligomycin A (OLA), FCCP, and Antimycin A/Rotenone (AA+Rot.) stimulated conditions. Cells were cultured in the medium containing 10 mM galactose. FIG. 3B depicts respiratory control ratios in control and OMA1 KD 21MT-1 cells cultured in 10 mM galactose medium. Data represent the mean±S.E.M. (n=3 biological replicates); *p<0.05, by t-test. FIG. 3C depicts the growth rate of control and OMA1-depleted 21MT-1 cells under conditions of glutamate pathway inhibition. Cells were cultured in the 10 mM galactose-containing medium in the presence of 10 μM BPTES for the indicated periods of time and the number of viable cells at each time point has been assessed. Data represent the mean±S.D. (n=3 biological replicates); *p<0.05, ***p<0.001, by unpaired t-test.
as §1

O=C(Cc1ccccc1)Nc1nnc(CCSCCc2nnc(NC(=O)Cc3ccccc3)s2)s1 [BPTES]
proliferation of oma1−/− MEFs compared with wild type cells [1]: proliferated at much slower rates than wild type cells
sensitivity of OMA1-depleted 21MT-1 cells to glutaminase inhibitor [2]: marked increase in sensitivity
